target: T1, AlucOR46/Orco (Apolygus lucorum, UniProt A0A1Q1NIJ3); assay: two-electrode voltage clamp, Xenopus oocytes, inward current dose-response; format: cell-based; conditions: not given
T1 construct: gene OR39; full-length ORF of AlucOR46 (1185 bp, 394 residues) in pT7Ts, cRNA co-injected with AlucOrco cRNA into Xenopus oocytes; OR/Orco heteromeric channel; with Odorant receptor coreceptor
T1 sequence (A0A1Q1NIJ3 1-394): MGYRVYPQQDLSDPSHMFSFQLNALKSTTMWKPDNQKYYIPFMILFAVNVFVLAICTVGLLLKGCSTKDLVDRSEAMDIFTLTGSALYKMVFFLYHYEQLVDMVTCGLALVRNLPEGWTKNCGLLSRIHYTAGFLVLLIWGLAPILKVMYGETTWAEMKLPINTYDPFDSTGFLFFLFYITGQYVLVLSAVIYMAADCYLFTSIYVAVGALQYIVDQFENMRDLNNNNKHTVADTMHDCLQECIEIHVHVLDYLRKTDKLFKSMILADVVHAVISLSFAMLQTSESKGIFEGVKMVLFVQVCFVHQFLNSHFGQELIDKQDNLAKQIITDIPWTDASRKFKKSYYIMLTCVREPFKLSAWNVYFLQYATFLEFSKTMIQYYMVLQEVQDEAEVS
T1 sequence (V9TQK7 1-471 partner): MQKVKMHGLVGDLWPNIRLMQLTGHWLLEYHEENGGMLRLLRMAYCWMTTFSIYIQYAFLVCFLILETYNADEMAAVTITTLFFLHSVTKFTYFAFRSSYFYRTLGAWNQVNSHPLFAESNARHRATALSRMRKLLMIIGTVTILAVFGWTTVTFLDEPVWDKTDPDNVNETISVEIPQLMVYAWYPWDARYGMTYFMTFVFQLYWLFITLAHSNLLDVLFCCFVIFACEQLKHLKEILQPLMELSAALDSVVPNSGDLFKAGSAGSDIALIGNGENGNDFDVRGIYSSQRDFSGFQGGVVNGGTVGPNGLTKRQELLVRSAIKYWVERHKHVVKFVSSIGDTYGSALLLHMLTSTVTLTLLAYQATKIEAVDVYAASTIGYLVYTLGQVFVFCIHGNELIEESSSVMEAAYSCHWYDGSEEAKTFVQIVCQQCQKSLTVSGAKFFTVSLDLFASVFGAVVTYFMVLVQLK
Source text: two-electrode voltage clamp, Xenopus oocytes, inward current dose-response on AlucOR46/Orco

SMILES | EC50
CCCCCCCO [1-Heptanol] | 13.8 µM
CC1(C)[C@H]2CC=C(CO)[C@@H]1C2 [(1R)-(−)-Myrtenol] | 74.4 µM
CCC/C=C/C=O [(E)-2-Hexenal] | 37.1 µM
CC/C=C/CCO [(E)-3-Hexenol] | 25.3 µM

target: T1, AlucOR46/Orco; assay: two-electrode voltage clamp, Xenopus oocytes, inward current at a single concentration; format: cell-based; conditions: agonist; 10^−4 M odorant; coexpressed with AlucOrco; 1× Ringer's buffer pH 7.6

SMILES | inward current response at 10^-4 M
C=C(C)[C@H]1CC=C(C)CC1 [(R)-(+)-Limonene] | Only six compounds: (S)-(−)-Limonene, (R)-(+)-Limonene
C=C(C)[C@@H]1CC=C(C)CC1 [(S)-(−)-Limonene] | Only six compounds: (S)-(−)-Limonene, (R)-(+)-Limonene
